Measurements reported in the NIST ThermoML archive (doi:10.1021/je060271a).

Conditions: 283.15 K, Liquid, Vibrating tube method

CCCC(=O)OCC(COC(=O)CCC)(COC(=O)CCC)COC(=O)CCC [pentaerythritol tetrabutyrate]
Conditions | mass density [kg/m3]
26946 kPa | 1074.1
26974 kPa | 1074.2
26998 kPa | 1074.3
27022 kPa | 1074.2
27050 kPa | 1074.3
27074 kPa | 1074.2
27098 kPa | 1074.2
27122 kPa | 1074.3
27151 kPa | 1074.2
27174 kPa | 1074.3
27198 kPa | 1074.2
27228 kPa | 1074.3
27248 kPa | 1074.3
27267 kPa | 1074.4
27296 kPa | 1074.4
27330 kPa | 1074.3
27354 kPa | 1074.3
27384 kPa | 1074.5
27408 kPa | 1074.4
27433 kPa | 1074.5
27463 kPa | 1074.4
27488 kPa | 1074.4
27512 kPa | 1074.4
27542 kPa | 1074.4
27566 kPa | 1074.6
27592 kPa | 1074.5
27622 kPa | 1074.5
27646 kPa | 1074.5
27672 kPa | 1074.6
27701 kPa | 1074.7
27726 kPa | 1074.6
27752 kPa | 1074.6
27782 kPa | 1074.5
27808 kPa | 1074.6
27833 kPa | 1074.6
27863 kPa | 1074.6
27889 kPa | 1074.6
27915 kPa | 1074.7
27941 kPa | 1074.7
27972 kPa | 1074.8
27998 kPa | 1074.6
28024 kPa | 1074.7
28049 kPa | 1074.8
28080 kPa | 1074.8
28101 kPa | 1074.7
28127 kPa | 1074.7
28164 kPa | 1074.8
28190 kPa | 1074.8
28217 kPa | 1074.7
28249 kPa | 1074.7
28276 kPa | 1074.8
28303 kPa | 1074.9
28329 kPa | 1074.9
28356 kPa | 1075
28388 kPa | 1074.9
28415 kPa | 1074.9
28447 kPa | 1075
28474 kPa | 1075.1
28500 kPa | 1075
28527 kPa | 1075
28559 kPa | 1075.1
28586 kPa | 1075
28618 kPa | 1075.1
28646 kPa | 1075.1
28674 kPa | 1075.2
28706 kPa | 1075.1
28733 kPa | 1075
28760 kPa | 1075.2
28787 kPa | 1075.2
28820 kPa | 1075.2
28847 kPa | 1075.2
28881 kPa | 1075.2
28908 kPa | 1075.1
28936 kPa | 1075.1
28969 kPa | 1075.2
28985 kPa | 1075.3
28997 kPa | 1075.2
29011 kPa | 1075.2
29026 kPa | 1075.1
29043 kPa | 1075.2
29054 kPa | 1075.3
29088 kPa | 1075.3
29116 kPa | 1075.3
29146 kPa | 1075.2
29150 kPa | 1075.4
29179 kPa | 1075.3
29207 kPa | 1075.3
29240 kPa | 1075.3
29253 kPa | 1075.5
29268 kPa | 1075.4
29296 kPa | 1075.4
29322 kPa | 1075.4
29330 kPa | 1075.5
29357 kPa | 1075.4
29385 kPa | 1075.6
29417 kPa | 1075.4
29442 kPa | 1075.4
29443 kPa | 1075.6
29464 kPa | 1075.4
29471 kPa | 1075.6
29482 kPa | 1075.7
29505 kPa | 1075.5
29534 kPa | 1075.5
29557 kPa | 1075.5
29562 kPa | 1075.6
29590 kPa | 1075.5
29625 kPa | 1075.6
29628 kPa | 1075.6
29649 kPa | 1075.5
29655 kPa | 1075.6
29683 kPa | 1075.6
29711 kPa | 1075.5
29718 kPa | 1075.7
29748 kPa | 1075.7
29778 kPa | 1075.5
29786 kPa | 1075.7
29808 kPa | 1075.6
29843 kPa | 1075.7
29859 kPa | 1075.7
29872 kPa | 1075.7
29901 kPa | 1075.7
29931 kPa | 1075.8
29943 kPa | 1075.7
29966 kPa | 1075.7
29996 kPa | 1075.8
30016 kPa | 1075.8
30031 kPa | 1075.7
30034 kPa | 1075.7
30037 kPa | 1075.8
30045 kPa | 1075.9
30052 kPa | 1075.8
30061 kPa | 1075.8
30091 kPa | 1075.8
30121 kPa | 1075.8
30158 kPa | 1075.9
30189 kPa | 1075.9
30208 kPa | 1075.9
30219 kPa | 1075.9
30250 kPa | 1075.8
30282 kPa | 1076
30285 kPa | 1075.9
30316 kPa | 1076
30325 kPa | 1076
30346 kPa | 1075.9
30381 kPa | 1076
30411 kPa | 1075.9
